Laboratory results as given in patent publication US9718792B2, “Isoxazoline hydroxamic acid derivatives as LpxC inhibitors” (priority 2014, dated 2017).
In brackets after ≈: the same amount, converted by molar mass. Like-named read-outs stand apart in the source and are kept apart here.

What was measured:
P. aeruginosa PAO1 = assay: Susceptibility Testing (MIC, broth microdilution); format: cell-based, Pseudomonas aeruginosa; conditions: P. aeruginosa PAO1, broth microdilution, 20 hours; for MIC: Pseudomonas aeruginosa, PAO1, 20 h, read-out: PAO1 MIC
Experimental: Bacterial isolates were cultivated from −70° C. frozen stocks by two consecutive overnight passages at 35° C. in ambient air on 5% blood agar (Remel, Lenexa, Kans.). Quality control and P. aeruginosa ATCC 27853) is from the American Type Culture Collection (ATCC; Rockville, Md.) and PAO1 was received from Dr. K. Poole.
Minimal Inhibitory Concentrations (MICs) were determined by the broth microdilution method in accordance with Clinical and Laboratories Institute (CLSI) guidelines. In brief, fresh bacterial overnight cultures were resuspended in sterile saline, adjusted to a 0.5 McFarland turbidity standard and then diluted […] in cation adjusted Mueller-Hinton Broth II (MHB; Remel BBL) to yield a final inoculum of approximately 5×10^5 colony-forming units (CFU)/mL. Two-fold serial dilutions of compounds were prepared in 100% dimethyl sulfoxide (DMSO) at 100-fold the highest final assay concentration; the resulting dilution series of compounds were diluted 1:10 with sterile water. Ten μl of the drug dilution series in 10% DMSO was transferred to microtiter wells and 90 μl of bacterial suspension was inoculated into the wells. All inoculated microdilution trays were incubated in ambient air at […] for 20 hours. Following incubation, assay plates were read in a microtiter plate reader at 600 nm and visually inspected to confirm the MIC endpoint well with the OD value. The lowest concentration of the compound that prevented visible growth was recorded as the MIC. Performance of the assay was monitored by testing ciprofloxacin against laboratory quality control strains in accordance with guidelines of the CLSI.

P. aeruginosa LpxC = P. aeruginosa LpxC (Pseudomonas aeruginosa (strain ATCC 15692 / DSM 22644 / CIP 104116 / JCM 14847 / LMG 12228 / 1C / PRS 101 / PAO1), UniProt P47205); assay: P. aeruginosa LpxC Inhibition Assay; format: biochemical; conditions: 2 μM substrate, LC-MS/MS
Excerpt: The P. aeruginosa LpxC protein is produced according to the general method of Hyland et al (Journal of Bacteriology 1997 179, 2029-2037: Cloning, expression and purification of UDP-3-O-acyl-GIcNAc deacetylase from Pseudomonas aeruginosa: a metalloamidase of the lipid A biosynthesis pathway). The LC-MS/MS method for quantitation of LpxC product was developed using an Agilent 1200 Capillary HPLC system coupled to an Applied Biosystems MDS Sciex 4000QTRAP mass spectrometer. Both instruments are controlled using the Applied Biosystems MDS Sciex Analyst software. LpxC reaction product (UDP-3-O—(R-3-hydroxyacyl)-glucosamine) was produced by hydrolysis of LpxC substrate catalyzed by P.a. LpxC and purified using reversed phase chromatography on a Phenomenex Luna C18(2) 4.6×50 mm column. An LpxC product calibration curve was generated to evaluate the sensitivity and dynamic range of the LC-MS/MS method. Briefly, compounds are pre-incubated with 1 nM P. aeruginosa LpxC for 30 min. at room temperature. Reactions are initiated by the addition of 2 μM UDP-3-O—(R-3-hydroxydecanoyl)-GIcNAc. Reactions are conducted in a 384-well plate with a total volume of 50 μL in each well containing 50 mM Sodium phosphate pH 7.5, 0.005% Trition X-100 for 20 min at room temperature. After quenching with 1.8% HOAc (5 μL of a 20% HOAc added to each well), reaction mixtures are analyzed using the LC-MS/MS method and peak areas are transformed into product concentration using a LpxC product calibration curve. Total activity (0% inhibition control) is obtained from reactions with no inhibitors and 100% inhibition control is the background using quenched samples before reaction starts. For IC50 determinations, peak areas are converted to percent inhibition in Microsoft Excel. Percent inhibition values are plotted vs. log compound concentration using XLfit. Data is fit to the four-parameter logistic equation using the non-linear regression algorithm in XLfit to return the IC50 and hill slope values.

[1] = 1 nM P. aeruginosa LpxC, read-out: PA LpxC IC50

Row | Structure (SMILES) | MIC (P. aeruginosa PAO1) | IC50 (P. aeruginosa LpxC; [1]) | PAO1 MIC (P. aeruginosa PAO1) | IC50 (P. aeruginosa LpxC; PA LpxC IC50, 1 nM P. aeruginosa LpxC)
1 | C[C@@H](O)c1ccc(-c2ccc(C3=NO[C@@H](C[C@](C)(C(=O)NO)S(C)(=O)=O)C3)cc2)cc1 [Compound 49, (R)—N-hydroxy-3-((R)-3-(4′-((R)-1-hydroxyethyl)-[1,1′-biphenyl]-4-yl)-4,5-dihydroisoxazol-5-yl)-2-methyl-2-(methylsulfonyl)] | 0.25 µg/mL (≈ 0.56 µM) | 1 nM |  | 
2 | C[C@@](C[C@H]1CC(c2ccc(-c3ccc(OCCO)cc3)cc2)=NO1)(C(=O)NO)S(C)(=O)=O [Compound 50, (R)—N-hydroxy-3-((R)-3-(4′-(2-hydroxyethoxy)-[1,1′-biphenyl]-4-yl)-4,5-dihydroisoxazol-5-yl)-2-methyl-2-(methylsulfonyl)] | 0.18 µg/mL (≈ 0.389 µM) | 0.7 nM |  | 
3 | COCC(C)(O)c1ccc(-c2ccc(C3=NO[C@@H](C[C@](C)(C(=O)NO)S(C)(=O)=O)C3)cc2)cc1 (stereo partly drawn) [Compound 51, (2R)—N-hydroxy-3-((5R)-3-(4′-(2-hydroxy-1-methoxypropan-2-yl)-[1,1′-biphenyl]-4-yl)-4,5-dihydroisoxazol-5-yl)-2-methyl-2-(methylsulfonyl)propanamide] | 1.4 µg/mL (≈ 2.85 µM) | 0.8 nM |  | 
4 | COCC1CC(C#Cc2ccc(C3=NO[C@@H](C[C@](C)(C(=O)NO)S(C)(=O)=O)C3)cc2)C1 (stereo partly drawn) [Compound 52, (R)—N-hydroxy-3-((R)-3-(4-((3-(methoxymethyl)cyclobutyl)ethynyl)phenyl)-4,5-dihydroisoxazol-5-yl)-2-methyl-2-(methylsulfonyl)propanamide] | 1 µg/mL (≈ 2.23 µM) | 0.8 nM |  | 
5 | COCC1CC(C#Cc2ccc(C3=NO[C@@H](C[C@](C)(C(=O)NO)S(C)(=O)=O)C3)cc2)C1 (stereo partly drawn) [Compound 53, (R)—N-hydroxy-3-((R)-3-(4-((3-(methoxymethyl)cyclobutyl)ethynyl)phenyl)-4,5-dihydroisoxazol-5-yl)-2-methyl-2-(methylsulfonyl)propanamide] |  | 0.5 nM | 0.5 µg/mL | 
6 | C[C@@](C[C@H]1CC(c2ccc(C#CC3CC(F)C3)cc2)=NO1)(C(=O)NO)S(C)(=O)=O (stereo partly drawn) [Compound 54, (R)-3-((R)-3-(4-((3-fluorocyclobutyl)ethynyl)phenyl)-4,5-dihydroisoxazol-5-yl)-N-hydroxy-2-methyl-2-(methylsulfonyl) propanamide] | 1 µg/mL (≈ 2.37 µM) | 0.7 nM |  | 
7 | C[C@@](C[C@H]1CC(c2ccc(C#CC3CC(CC#N)C3)cc2)=NO1)(C(=O)NO)S(C)(=O)=O (stereo partly drawn) [Compound 55, (R)-3-((R)-3-(4-((3-(cyanomethyl)cyclobutyl)ethynyl)phenyl)-4,5-dihydroisoxazol-5-yl)-N-hydroxy-2-methyl-2-(methylsulfonyl)propanamide] | 0.5 µg/mL (≈ 1.13 µM) | < 0.5 nM |  | 
8 | C[C@H](O)c1ccc(-c2ccc(C3=NO[C@@H](C[C@](C)(C(=O)NO)S(C)(=O)=O)C3)cc2)cc1 [Compound 56, (R)—N-hydroxy-3-((R)-3-(4′-((S)-1-hydroxyethyl)-[1,1′-biphenyl]-4-yl)-4,5-dihydroisoxazol-5-yl)-2-methyl-2-(methylsulfonyl)] | 0.25 µg/mL (≈ 0.56 µM) | 1 nM |  | 
9 | C[C@@](C[C@H]1CC(c2ccc(-c3cccc(CO)c3)cc2)=NO1)(C(=O)NO)S(C)(=O)=O [Compound 57, (R)—N-hydroxy-3-((R)-3-(3′-(hydroxymethyl)-[1,1′-biphenyl]-4-yl)-4,5-dihydroisoxazol-5-yl)-2-methyl-2-(methylsulfonyl)] | 1 µg/mL (≈ 2.31 µM) | < 0.5 nM |  | 
10 | C[C@@](C[C@H]1CC(c2ccc(-c3ccc(S(C)(=O)=O)cc3)cc2)=NO1)(C(=O)NO)S(C)(=O)=O [Compound 58, (R)—N-hydroxy-2-methyl-2-(methylsulfonyl)-3-((R)-3-(4′-(methylsulfonyl)-[1,1-biphenyl]-4-yl)-4,5-dihydroisoxazol-5-yl)] | 0.5 µg/mL (≈ 1.04 µM) | < 0.5 nM |  | 
11 | COc1ccc(-c2ccc(C3=NO[C@@H](C[C@](C)(C(=O)NO)S(C)(=O)=O)C3)cc2)c(F)c1 [Compound 59, (R)-3-((R)-3-(2′-fluoro-4′-methoxy-[1,1′-biphenyl]-4-yl)-4,5-dihydroisoxazol-5-yl)-N-hydroxy-2-methyl-2-(methylsulfonyl)] | 0.35 µg/mL (≈ 0.777 µM) | < 0.5 nM |  | 
12 | COC[C@H](O)Cc1ccc(-c2ccc(C3=NO[C@@H](C[C@](C)(C(=O)NO)S(C)(=O)=O)C3)cc2)cc1 [Compound 60, (R)—N-hydroxy-3-((R)-3-(4′-((R)-2-hydroxy-3-methoxypropyl)-[1,1′-biphenyl]-4-yl)-4,5-dihydroisoxazol-5-yl)-2-methyl-2-(methylsulfonyl)propanamide] | 0.25 µg/mL (≈ 0.51 µM) | < 0.5 nM |  | 
13 | CCC#Cc1ccc(C2=NO[C@@H](C[C@](C)(C(=O)NO)S(C)(=O)=O)C2)cc1 [Compound 62, (R)-3-((R)-3-(4-(but-1-yn-1-yl)phenyl)-4,5-dihydroisoxazol-5-yl)-N-hydroxy-2-methyl-2-(methylsulfonyl)propanamide] | 0.33 µg/mL (≈ 0.872 µM) | < 0.5 nM |  | 
14 | C[C@@](C[C@H]1CC(c2ccc(-c3ccc(C(F)(F)F)nc3)cc2)=NO1)(C(=O)NO)S(C)(=O)=O [Compound 64, (R)—N-hydroxy-2-methyl-2-(methylsulfonyl)-3-((R)-3-(4-(6-(trifluoromethyl)pyridin-3-yl)phenyl)-4,5-dihydroisoxazol-5-yl)propanamide] | 0.25 µg/mL (≈ 0.53 µM) | < 0.5 nM |  | 
15 | C[C@@](C[C@H]1CC(c2ccc(-c3ccc(CO)nc3)cc2)=NO1)(C(=O)NO)S(C)(=O)=O [Compound 65, (R)—N-hydroxy-3-((R)-3-(4-(6-(hydroxymethyl)pyridin-3-yl)phenyl)-4,5-dihydroisoxazol-5-yl)-2-methyl-2-(methylsulfonyl)propanamide] | 1 µg/mL (≈ 2.31 µM) | < 0.5 nM |  | 
16 | COc1ccc(-c2ccc(C3=NO[C@@H](C[C@](C)(C(=O)NO)S(C)(=O)=O)C3)cc2)cn1 [Compound 66, (R)—N-hydroxy-3-((R)-3-(4-(6-methoxypyridin-3-yl)phenyl)-4,5-dihydroisoxazol-5-yl)-2-methyl-2-(methylsulfonyl)propanamide] | 0.25 µg/mL (≈ 0.577 µM) | < 0.5 nM |  | 
17 | Cc1ccc(-c2ccc(C3=NO[C@@H](C[C@](C)(C(=O)NO)S(C)(=O)=O)C3)cc2)cn1 [Compound 67, (R)—N-hydroxy-2-methyl-3-((R)-3-(4-(6-methylpyridin-3-yl)phenyl)-4,5-dihydroisoxazol-5-yl)-2-(methylsulfonyl) propanamide] | 0.35 µg/mL (≈ 0.838 µM) | < 0.5 nM |  | 
18 | Cn1cc(-c2ccc(C3=NO[C@@H](C[C@](C)(C(=O)NO)S(C)(=O)=O)C3)cc2)ccc1=O [Compound 68, (R)—N-hydroxy-2-methyl-3-((R)-3-(4-(1-methyl-6-oxo-1,6-dihydropyridin-3-yl)phenyl)-4,5-dihydroisoxazol-5-yl)-2-(methylsulfonyl)propanamide] | 16 µg/mL (≈ 36.9 µM) |  |  | 2 nM
19 | CC(C)(C#N)c1ccc(-c2ccc(C3=NO[C@@H](C[C@](C)(C(=O)NO)S(C)(=O)=O)C3)cc2)cc1 [Compound 69, (R)-3-((R)-3-(4′-(2-cyanopropan-2-yl)-[1,1′-biphenyl]-4-yl)-4,5-dihydroisoxazol-5-yl)-N-hydroxy-2-methyl-2-(methylsulfonyl)propanamide] | 0.71 µg/mL (≈ 1.51 µM) | < 0.5 nM |  | 
20 | C[C@@](C[C@H]1CC(c2ccc(-c3ccnc(C(F)(F)F)c3)cc2)=NO1)(C(=O)NO)S(C)(=O)=O [Compound 70, (R)—N-hydroxy-2-methyl-2-(methylsulfonyl)-3-((R)-3-(4-(2-(trifluoromethyl)pyridin-4-yl)phenyl)-4,5-dihydroisoxazol-5-yl)] | 8 µg/mL (≈ 17 µM) | 2 nM |  | 
